According to ChEMBL document CHEMBL3992526, “Antagonizing NOD2 Signaling with Conjugates of Paclitaxel and Muramyl Dipeptide Derivatives Sensitizes Paclitaxel Therapy and Significantly Prevents Tumor Metastasis” (J Med Chem, 2017):

These molecules were tested against T1, Nucleotide-binding oligomerization domain-containing protein 2 (Homo sapiens, UniProt Q9HC29) (assay: Inhibition of MDP-induced human NOD2 signaling expressed in HEK-Blue cells preincubated for 3 hrs followed by MDP-stimulation for 20 hrs by spectrophotometry based SEAP reporter gene assay).
T1 sequence (Q9HC29 whole entry, the tested form may be a part): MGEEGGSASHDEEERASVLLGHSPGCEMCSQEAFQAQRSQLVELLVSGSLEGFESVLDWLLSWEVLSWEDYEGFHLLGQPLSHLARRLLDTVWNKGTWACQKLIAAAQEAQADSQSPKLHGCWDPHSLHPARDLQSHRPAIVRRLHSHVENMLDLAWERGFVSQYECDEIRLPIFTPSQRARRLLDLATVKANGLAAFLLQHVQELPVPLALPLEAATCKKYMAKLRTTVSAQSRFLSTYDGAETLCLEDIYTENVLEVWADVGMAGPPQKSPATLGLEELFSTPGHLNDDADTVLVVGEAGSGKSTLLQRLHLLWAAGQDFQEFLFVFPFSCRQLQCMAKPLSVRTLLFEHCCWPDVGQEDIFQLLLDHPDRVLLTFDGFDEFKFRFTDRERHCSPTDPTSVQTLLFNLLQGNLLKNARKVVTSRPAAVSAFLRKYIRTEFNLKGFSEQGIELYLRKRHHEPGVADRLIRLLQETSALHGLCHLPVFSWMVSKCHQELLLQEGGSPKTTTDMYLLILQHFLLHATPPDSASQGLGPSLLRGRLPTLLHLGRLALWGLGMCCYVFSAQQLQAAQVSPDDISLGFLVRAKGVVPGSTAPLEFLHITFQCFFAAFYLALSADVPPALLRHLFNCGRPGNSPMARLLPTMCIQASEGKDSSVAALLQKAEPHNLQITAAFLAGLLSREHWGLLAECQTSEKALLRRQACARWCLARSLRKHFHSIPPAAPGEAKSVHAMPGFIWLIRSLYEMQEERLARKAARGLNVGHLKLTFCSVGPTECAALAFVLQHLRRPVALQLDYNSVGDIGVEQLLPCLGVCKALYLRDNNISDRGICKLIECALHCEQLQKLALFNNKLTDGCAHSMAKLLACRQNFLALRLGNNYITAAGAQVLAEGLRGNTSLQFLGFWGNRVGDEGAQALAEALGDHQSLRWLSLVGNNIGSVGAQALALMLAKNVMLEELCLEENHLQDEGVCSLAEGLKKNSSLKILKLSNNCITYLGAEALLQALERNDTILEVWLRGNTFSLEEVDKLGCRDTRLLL
Type: cell-based

Row | IC50 | Compound
1 | 5.01 µM | CC(=O)O[C@@]12CO[C@@H]1C[C@H](O)[C@@]1(C)C(=O)[C@H](O)C3=C(C)[C@@H](OC(=O)[C@H](O)[C@@H](NC(=O)OC(C)(C)C)c4ccccc4)C[C@@](O)([C@@H](OC(=O)c4ccccc4)[C@H]21)C3(C)C [DOCETAXEL ANHYDROUS]

Each molecule was assayed against T1, Nucleotide-binding oligomerization domain-containing protein 2 (assay: Inhibition of MDP-induced human NOD2 signaling expressed in HEK-Blue cells at 10 uM preincubated for 3 hrs followed by MDP-stimulation for 20 hrs by spectrophotometry based SEAP reporter gene assay relative to control).
Type: cell-based

Row | Compound | inhibition
2 | CC(=O)O[C@@]12CO[C@@H]1C[C@H](O)[C@@]1(C)C(=O)[C@H](O)C3=C(C)[C@@H](OC(=O)[C@H](OCCC(=O)NCCCC[C@H](NC(=O)CC[C@@H](NC(=O)[C@H](C)NC(=O)/C=C/c4ccc(F)cc4Cl)C(N)=O)C(N)=O)[C@@H](NC(=O)C(C)(C)C)c4ccccc4)C[C@@](O)([C@@H](OC(=O)c4ccccc4)[C@H]21)C3(C)C | 58%
3 | CC(=O)O[C@@]12CO[C@@H]1C[C@H](O)[C@@]1(C)C(=O)[C@H](O)C3=C(C)[C@@H](OC(=O)[C@H](OCCC(=O)NCCCC[C@H](NC(=O)CC[C@@H](NC(=O)[C@H](C)NC(=O)/C=C/c4ccc(F)cc4F)C(N)=O)C(=O)O)[C@@H](NC(=O)C(C)(C)C)c4ccccc4)C[C@@](O)([C@@H](OC(=O)c4ccccc4)[C@H]21)C3(C)C | 28%
4 | CC(=O)O[C@@]12CO[C@@H]1C[C@H](O)[C@@]1(C)C(=O)[C@H](O)C3=C(C)[C@@H](OC(=O)[C@H](OCCC(=O)NCCCC[C@H](NC(=O)CC[C@@H](NC(=O)[C@H](C)NC(=O)c4ccc(Cl)cc4)C(N)=O)C(=O)O)[C@@H](NC(=O)C(C)(C)C)c4ccccc4)C[C@@](O)([C@@H](OC(=O)c4ccccc4)[C@H]21)C3(C)C | 14%
5 | CC(=O)O[C@@]12CO[C@@H]1C[C@H](O)[C@@]1(C)C(=O)[C@H](O)C3=C(C)[C@@H](OC(=O)[C@H](OCCC(=O)NCCCC[C@H](NC(=O)CC[C@@H](NC(=O)[C@H](C)NC(=O)/C=C/c4ccc(F)cc4)C(N)=O)C(=O)O)[C@@H](NC(=O)C(C)(C)C)c4ccccc4)C[C@@](O)([C@@H](OC(=O)c4ccccc4)[C@H]21)C3(C)C | 19%
6 | CC(=O)O[C@@]12CO[C@@H]1C[C@H](O)[C@@]1(C)C(=O)[C@H](O)C3=C(C)[C@@H](OC(=O)[C@H](OCCC(=O)NCCCC[C@H](NC(=O)CC[C@@H](NC(=O)[C@H](C)NC(=O)/C=C/c4cccc(F)c4)C(N)=O)C(=O)O)[C@@H](NC(=O)C(C)(C)C)c4ccccc4)C[C@@](O)([C@@H](OC(=O)c4ccccc4)[C@H]21)C3(C)C | 30%
7 | CC(=O)O[C@@]12CO[C@@H]1C[C@H](O)[C@@]1(C)C(=O)[C@H](O)C3=C(C)[C@@H](OC(=O)[C@H](OCCC(=O)NCCCC[C@H](NC(=O)CC[C@@H](NC(=O)[C@H](C)NC(=O)/C=C/c4ccc(F)c(F)c4)C(N)=O)C(=O)O)[C@@H](NC(=O)C(C)(C)C)c4ccccc4)C[C@@](O)([C@@H](OC(=O)c4ccccc4)[C@H]21)C3(C)C | 24%
8 | CC(=O)O[C@H]1C(=O)[C@@]2(C)[C@H]([C@H](OC(=O)c3ccccc3)[C@]3(O)C[C@H](OC(=O)[C@H](OCCC(=O)NCCCC[C@H](NC(=O)CC[C@@H](NC(=O)[C@H](C)NC(=O)/C=C/c4ccc(F)cc4F)C(N)=O)C(=O)O)[C@@H](NC(=O)c4ccccc4)c4ccccc4)C(C)=C1C3(C)C)[C@]1(OC(C)=O)CO[C@@H]1C[C@@H]2O | 21%
9 | CC(=O)O[C@@]12CO[C@@H]1C[C@H](O)[C@@]1(C)C(=O)[C@H](O)C3=C(C)[C@@H](OC(=O)[C@H](OCCC(=O)NCCCC[C@H](NC(=O)CC[C@@H](NC(=O)[C@H](C)NC(=O)c4ccccc4)C(N)=O)C(=O)O)[C@@H](NC(=O)C(C)(C)C)c4ccccc4)C[C@@](O)([C@@H](OC(=O)c4ccccc4)[C@H]21)C3(C)C | 20%
10 | CC(=O)O[C@H]1C(=O)[C@@]2(C)[C@H]([C@H](OC(=O)c3ccccc3)[C@]3(O)C[C@H](OC(=O)[C@H](OCCC(=O)NCCCC[C@H](NC(=O)CC[C@@H](NC(=O)[C@H](C)NC(=O)/C=C/c4ccc(Br)cc4)C(N)=O)C(=O)O)[C@@H](NC(=O)c4ccccc4)c4ccccc4)C(C)=C1C3(C)C)[C@]1(OC(C)=O)CO[C@@H]1C[C@@H]2O | 44%
11 | CC(=O)O[C@@]12CO[C@@H]1C[C@H](O)[C@@]1(C)C(=O)[C@H](O)C3=C(C)[C@@H](OC(=O)[C@H](OCCC(=O)NCCCC[C@H](NC(=O)CC[C@@H](NC(=O)[C@H](C)NC(=O)c4ccc5ccccc5n4)C(N)=O)C(=O)O)[C@@H](NC(=O)C(C)(C)C)c4ccccc4)C[C@@](O)([C@@H](OC(=O)c4ccccc4)[C@H]21)C3(C)C | 28%
12 | CC(=O)O[C@H]1C(=O)[C@@]2(C)[C@H]([C@H](OC(=O)c3ccccc3)[C@]3(O)C[C@H](OC(=O)[C@H](OCCC(=O)NCCCC[C@H](NC(=O)CC[C@@H](NC(=O)[C@H](C)NC(=O)/C=C/c4ccc(C)cc4)C(N)=O)C(=O)O)[C@@H](NC(=O)c4ccccc4)c4ccccc4)C(C)=C1C3(C)C)[C@]1(OC(C)=O)CO[C@@H]1C[C@@H]2O | 41%
13 | COc1cccc(/C=C/C(=O)N[C@@H](C)C(=O)N[C@H](CCC(=O)N[C@@H](CCCCNC(=O)CCO[C@@H](C(=O)O[C@H]2C[C@@]3(O)[C@@H](OC(=O)c4ccccc4)[C@@H]4[C@]5(OC(C)=O)CO[C@@H]5C[C@H](O)[C@@]4(C)C(=O)[C@H](OC(C)=O)C(=C2C)C3(C)C)[C@@H](NC(=O)c2ccccc2)c2ccccc2)C(=O)O)C(N)=O)c1 | 45%
14 | CC(=O)O[C@@]12CO[C@@H]1C[C@H](O)[C@@]1(C)C(=O)[C@H](O)C3=C(C)[C@@H](OC(=O)[C@H](OCCC(=O)NCCCC[C@H](NC(=O)CC[C@@H](NC(=O)[C@H](C)NC(=O)/C=C/c4cccs4)C(N)=O)C(=O)O)[C@@H](NC(=O)C(C)(C)C)c4ccccc4)C[C@@](O)([C@@H](OC(=O)c4ccccc4)[C@H]21)C3(C)C | 26%
15 | CC(=O)O[C@H]1C(=O)[C@@]2(C)[C@H]([C@H](OC(=O)c3ccccc3)[C@]3(O)C[C@H](OCCC(=O)NCCCC[C@H](NC(=O)CC[C@@H](NC(=O)[C@H](C)NC(=O)/C=C/c4ccc(Cl)cc4F)C(N)=O)C(N)=O)C(C)=C1C3(C)C)[C@]1(OC(C)=O)CO[C@@H]1C[C@@H]2O | 6%
16 | CCCCOC(=O)[C@H](OCCC(=O)NCCCC[C@H](NC(=O)CC[C@@H](NC(=O)[C@H](C)NC(=O)/C=C/c1ccc(Cl)cc1F)C(N)=O)C(N)=O)[C@@H](NC(=O)c1ccccc1)c1ccccc1 | -6%
17 | CC(=O)O[C@H]1C(=O)[C@@]2(C)[C@H]([C@H](OC(=O)c3ccccc3)[C@]3(O)C[C@H](OC(=O)[C@H](OCCC(=O)NCCCC[C@H](NC(=O)CC[C@@H](NC(=O)[C@H](C)NC(=O)/C=C/c4ccc(F)cc4)C(N)=O)C(=O)O)[C@@H](NC(=O)c4ccccc4)c4ccccc4)C(C)=C1C3(C)C)[C@]1(OC(C)=O)CO[C@@H]1C[C@@H]2O | 27%

More lines, now with the values ahead:

Row | inhibition | Compound
18 | 22% | CC(=O)O[C@@]12CO[C@@H]1C[C@H](O)[C@@]1(C)C(=O)[C@H](OCCC(=O)NCCCC[C@H](NC(=O)CC[C@@H](NC(=O)[C@H](C)NC(=O)/C=C/c3ccc(Cl)cc3F)C(N)=O)C(N)=O)C3=C(C)[C@@H](O)C[C@@](O)([C@@H](OC(=O)c4ccccc4)[C@H]21)C3(C)C
19 | 34% | CC(=O)O[C@@]12CO[C@@H]1C[C@H](O)[C@@]1(C)C(=O)[C@H](O)C3=C(C)[C@@H](OC(=O)[C@H](OCCC(=O)NCCCC[C@H](NC(=O)CC[C@@H](NC(=O)[C@H](C)NC(=O)COc4cccc5ccccc45)C(N)=O)C(=O)O)[C@@H](NC(=O)C(C)(C)C)c4ccccc4)C[C@@](O)([C@@H](OC(=O)c4ccccc4)[C@H]21)C3(C)C
20 | 25% | CC(=O)O[C@@]12CO[C@@H]1C[C@H](O)[C@@]1(C)C(=O)[C@H](O)C3=C(C)[C@@H](OC(=O)[C@H](OCCC(=O)NCCCC[C@H](NC(=O)CC[C@@H](NC(=O)[C@H](C)NC(=O)/C=C/c4ccc(C)cc4)C(N)=O)C(=O)O)[C@@H](NC(=O)C(C)(C)C)c4ccccc4)C[C@@](O)([C@@H](OC(=O)c4ccccc4)[C@H]21)C3(C)C
21 | 32% | CC(=O)O[C@@]12CO[C@@H]1C[C@H](O)[C@@]1(C)C(=O)[C@H](O)C3=C(C)[C@@H](OC(=O)[C@H](OCCC(=O)NCCCC[C@H](NC(=O)CC[C@@H](NC(=O)[C@H](C)NC(=O)/C=C/c4ccc(Cl)cc4F)C(N)=O)C(=O)O)[C@@H](NC(=O)C(C)(C)C)c4ccccc4)C[C@@](O)([C@@H](OC(=O)c4ccccc4)[C@H]21)C3(C)C
22 | 23% | CC(=O)O[C@@]12CO[C@@H]1C[C@H](O)[C@@]1(C)C(=O)[C@H](O)C3=C(C)[C@@H](OC(=O)[C@H](OCCC(=O)NCCCC[C@H](NC(=O)CC[C@@H](NC(=O)[C@H](C)NC(=O)/C=C/c4ccc(O)cc4)C(N)=O)C(=O)O)[C@@H](NC(=O)C(C)(C)C)c4ccccc4)C[C@@](O)([C@@H](OC(=O)c4ccccc4)[C@H]21)C3(C)C
23 | 29% | CC(=O)O[C@H]1C(=O)[C@@]2(C)[C@H]([C@H](OC(=O)c3ccccc3)[C@]3(O)C[C@H](OC(=O)[C@H](OCCC(=O)NCCCC[C@H](NC(=O)CC[C@@H](NC(=O)[C@H](C)NC(=O)/C=C/c4ccc(F)c(F)c4)C(N)=O)C(=O)O)[C@@H](NC(=O)c4ccccc4)c4ccccc4)C(C)=C1C3(C)C)[C@]1(OC(C)=O)CO[C@@H]1C[C@@H]2O
24 | -7% | COC(=O)[C@H](OCCC(=O)NCCCC[C@H](NC(=O)CC[C@@H](NC(=O)[C@H](C)NC(=O)/C=C/c1ccc(Cl)cc1F)C(N)=O)C(N)=O)[C@@H](NC(=O)c1ccccc1)c1ccccc1
25 | 44% | CC(=O)O[C@H]1C(=O)[C@@]2(C)[C@H]([C@H](OC(=O)c3ccccc3)[C@]3(O)C[C@H](OC(=O)[C@H](OCCC(=O)NCCCC[C@H](NC(=O)CC[C@@H](NC(=O)[C@H](C)NC(=O)/C=C/c4ccc(Cl)cc4)C(N)=O)C(=O)O)[C@@H](NC(=O)c4ccccc4)c4ccccc4)C(C)=C1C3(C)C)[C@]1(OC(C)=O)CO[C@@H]1C[C@@H]2O
26 | 45% | CC(=O)O[C@H]1C(=O)[C@@]2(C)[C@H]([C@H](OC(=O)c3ccccc3)[C@]3(O)C[C@H](OC(=O)[C@H](OCCC(=O)NCCCC[C@H](NC(=O)CC[C@@H](NC(=O)[C@H](C)NC(=O)/C=C/c4ccc(Cl)cc4F)C(N)=O)C(=O)O)[C@@H](NC(=O)c4ccccc4)c4ccccc4)C(C)=C1C3(C)C)[C@]1(OC(C)=O)CO[C@@H]1C[C@@H]2O
27 | 9% | CC(=O)O[C@H]1C(=O)[C@]2(C)[C@@H](OCCC(=O)NCCCC[C@H](NC(=O)CC[C@@H](NC(=O)[C@H](C)NC(=O)/C=C/c3ccc(Cl)cc3F)C(N)=O)C(N)=O)C[C@H]3OC[C@@]3(OC(C)=O)[C@H]2[C@H](OC(=O)c2ccccc2)[C@]2(O)C[C@H](O)C(C)=C1C2(C)C
